# Assay results reported in patent US6635628B2, “Methods of administering camptothecin compounds for the treatment of cancer with reduced side effects” (The George Washington University, priority 1998, dated 2003).
# How the values were obtained:
# [1] = tested on: intestinal cells from whole small-intestine; assay: Uptake of 14C-labeled CPT-11 and SN-38 by intestinal cells, regions combined or not distinguished (TCA, pH, bicarbonate effects)
# Method: By adding the drugs to Hank's solution containing intestinal cells from whole small-intestine, uptake studies were performed.
# Intestinal cells were isolated as previously described (28, 29). Briefly, male hamsters were anesthetized with sodium pentobarbital (Nembutol 70 mg/kg body weight). The entire intestine was removed. The intestinal lumen was washed with 37° C. Hank's solution. Sacs of the ileum (12.5 cm from cecum) and jejunum (remaining small intestine) were rinsed, as well as the intestinal sacs of the anal site of small intestine (12.5 cm from cecum) and oral site (the other small intestine). The sacs were rinsed with oxygenated buffer solution containing sodium citrate (96 mM NaCl, 1.5 mM KCl, 5.6 mM KH2PO4, 27 mM sodium citrate, pH 7.3), and incubated for 10 min in the same buffer at 37° C. The sacs were then emptied, filled with oxygenated buffer solution containing EDTA (140 mM NaCl, 16 mM Na2HPO4, 2 mM EDTA, 0.5 mM dithiothreitol, pH 7.3), incubated for 10 min at 37° C. Then each sac was placed onto a petri dish and gently vortexed for 1 min. The buffer containing intestinal cells was recovered in 50 mL of Hanks' solution, washed twice and adjusted at 10^6 cells/ml in Hanks' medium (cellular stock solution containing 0.5% bovine serum albumin, pH 7.4).
# The cellular suspension of 0.95 ml was incubated for 15 min in a 37° C. water bath with stirring. Uptake was started by the addition of 0.05 ml PBS (at pH 3 or 9) containing labeled SN-38 or CPT-11 at 37° C. At various time intervals, 100 μL, sample aliquots were diluted into 3 mL of Hank's medium at 4° C. to stop the uptake. The stop solution containing the cells was filtered through a glass microfiber filter (Glass Fiber Filter Circles G4, Fisherbrand, Pa.) under vacuum (20 psi). The cells were washed once with 5 mL of 0.5% bovine serum albumin-containing Hanks' medium (4° C.) and once with 20 mL of Hanks' solution (4° C.). The filters were placed in a vial containing 4 mL of scintillation liquid (Ultra Gold, Packard, Conn.) and the radioactivity was counted in a β scintillation counter (LS3801, Beckman, Md.).
# The effect of the metabolic inhibitor, 2,4 dinitrophenol (1 mM), was studied by adding this agent to the cells 3 min prior to either ^14C-CPT-11 or ^14C-SN-38 (2 μM). The effect of 20 mM of taurocholic acid (TCA) on the uptake of both CPT-11 and SN-38 was investigated following overnight incubation of ^14C-CPT-11 (20 μM) and ^14C-SN-38 (2 μM) in Hank's solution, at pH 7.4 and in the presence and absence of TCA. The effect of 200 μM of DNP-SG or SN-38-Glu was also studied by adding these agents to the cell preparation 7 min prior to either ^14C-CPT-11 (20 μM) and ^14C-SN-38 (2 μM).
# The effect of physiologic pH on the initial intestinal uptake rate of CPT-11 and SN-38 was investigated following overnight incubation of ^14C-CPT-11 (20 μM) and ^14C-SN-38 (2 μM) in phosphate buffered saline at pH 6.2, 6.8, 7.4 and 8, respectively.
# The initial rate of uptake of CPT-11 or SN-38 was derived from the linear regression analysis of the respective regression line obtained from the plot of the uptake as a function of time. The initial rates of uptake were plotted against the corresponding concentration. The data were fitted by least-squares nonlinear regression analysis (SigmaStat, Jandel Scientific, CA), using the equation V=(Vmax·S)/(Km+S)+Kd·S where V represents the initial rate of uptake. Vmax is the maximum rate of uptake, Km is the apparent Michaelis constant, Kd is the rate of diffusion and S is the concentration of CPT-11 or SN-38.
# [2] = assay type: physicochemical; conditions: 1,000-molecular weight cut-off membrane
# Source text: Monomers were separated from micellar aggregates by ultrafiltration through a 1000-molecular weight cut-off membrane (YM1) as described in Materials and Methods. Values are the monomeric forms of the indicated metabolites, expressed as a percentage (%) of the concentration of the initial solution before ultrafiltration. Comparison between TCA and control was estimated by Mann-Whitney test. […] Abbreviations used: CPT lactone (CPT lact.); CPT carboxylate (CPT carb.); SN-38 lactone (SN lact.); and SN-38 carboxylate (SN carb.).
# topoisomerase I = biological target: T1, topoisomerase I (Homo sapiens, UniProt P11387); conditions: cited from earlier work
# T1 sequence (P11387 1-765): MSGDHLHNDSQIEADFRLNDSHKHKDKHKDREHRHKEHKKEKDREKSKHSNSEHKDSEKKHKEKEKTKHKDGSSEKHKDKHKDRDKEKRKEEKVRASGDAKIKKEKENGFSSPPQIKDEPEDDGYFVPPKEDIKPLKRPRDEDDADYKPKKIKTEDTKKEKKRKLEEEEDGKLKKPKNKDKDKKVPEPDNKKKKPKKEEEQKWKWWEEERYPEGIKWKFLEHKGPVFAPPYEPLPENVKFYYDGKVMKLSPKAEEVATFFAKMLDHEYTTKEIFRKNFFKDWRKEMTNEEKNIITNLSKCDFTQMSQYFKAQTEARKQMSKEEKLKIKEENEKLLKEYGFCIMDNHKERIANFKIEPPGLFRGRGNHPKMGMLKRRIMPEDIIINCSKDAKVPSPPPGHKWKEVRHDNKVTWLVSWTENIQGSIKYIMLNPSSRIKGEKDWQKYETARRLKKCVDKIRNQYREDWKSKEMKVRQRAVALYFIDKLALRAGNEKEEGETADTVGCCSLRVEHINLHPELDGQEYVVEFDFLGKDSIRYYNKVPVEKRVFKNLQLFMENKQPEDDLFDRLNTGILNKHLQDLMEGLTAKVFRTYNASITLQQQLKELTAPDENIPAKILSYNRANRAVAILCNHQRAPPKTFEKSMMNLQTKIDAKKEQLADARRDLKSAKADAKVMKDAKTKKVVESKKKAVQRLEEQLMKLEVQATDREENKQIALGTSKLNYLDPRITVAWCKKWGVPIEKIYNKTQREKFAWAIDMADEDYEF
# HT29 cells [3] = assay: Initial uptake rate of [14C]SN-38 by HT29 cells as a function of pH; assay type: in vitro ADME
# Method: The uptake study was initiated by adding the compounds to Hanks' solution containing HT29 cells. The comparative initial rate of uptake as function of pH was analyzed by Kruskal-Wallis test (p<0.001) and Dunn's method (*p<0.05).
# Uptake of ^14C-labeled CPT-11 and SN-38 was measured by rapid vacuum filtration assay (28, 29).
# HT29 cells [4] = assay: Cytotoxicity assay (MTT, mitochondrial dehydrogenase activity) in HT29 cells; assay type: cell-based; conditions: 0.4 μM SN-38; 24 h exposure, 24 h drug-free; pH 6.2, 6.8, 7.4, 8.0
# Method: Rapid colorimetric assay for mitochondrial dehydrogenase activity was modified and used for the estimation of cytotoxicity of SN-38 (Mosmann, 1983). […] After 24 h-exposure, the cells were washed twice, and subjected to a drug-free incubation for 24 h. Then, the cells were incubated with 0.5 mg/ml 3-(4,5-dimethylthiazol-2-yl)-2,5-diphenyl-tetrazolium bromide (MTT) for 4 h, and the blue formazan crystals were solubilized by addition of 10% n-dodecylsulfate sodium salt (SDS) in 0.1N HCl and overnight incubation. The formation of the blue formazan compound is spectrophotometrically determined at 560 nm (Ultraspec 4050, LKB, Bromma, Sweden).
# Solubility in water = assay type: physicochemical
# [5] = cited from earlier work
# [6] = rat; 24 h after IV injection of 14C-SN-38; cited from earlier work
# [7] = bile of two men treated by cisplatin who received CPT-11 intravenously; cited from earlier work
compound,measurement,setting,value
CCc1c2c(nc3ccc(O)cc13)-c1cc([C@@](O)(CC)C(=O)O)c(CO)c(=O)n1C2 [SN-38 carboxylate],transport mechanism in intestinal cells,[1],actively absorbed
same,saturability of the uptake (predominant component),"[1]; jejunal and ileal cells, SN-38 concentrations lower than 2 μM",mostly non-saturable
same,effect of TCA on % monomer concentration / association to TCA micelles,[2],did not significantly associate to TCA micelles
same,topoisomerase I-inhibitory activity,topoisomerase I,only minor
"CCc1c2c(nc3ccc(O)cc13)-c1cc3c(c(=O)n1C2)COC(=O)[C@]3(O)CC [SN-38, 7-ethyl-10-hydroxy-camptothecin]",initial uptake rate at acidic pH (pH 6.2 and 6.8) versus neutral or alkaline pH (pH 7.4 and 8),[1],several times greater
same,initial uptake rate in the presence of 20 mM TCA,"[1]; cells from jejunum and ileum combined, 14C-CPT-11 20 μM, 14C-SN-38 2 μM, pH 7.4, mean±SD, n=5",69.3±12.7 % of control without TCA
same,decrease of the uptake rate at a pH greater than 6.8,[1]; pH 6.2,around 65%
same,uptake when HEPES of the Hank's buffer was replaced by sodium bicarbonate,[1]; pH adjusted to greater than 7,decreased
same,initial rate of uptake in HT-29 cells compared with isolated hamster intestinal cells,HT29 cells [3],lower in HT-29 cells than in isolated hamster intestinal cells
same,uptake rate in HT29 cells as a function of pH,"HT29 cells [3]; 2 μM [14C]SN-38, pH 6.2, 6.8, 7.4, 8.0","significantly greater at pH 6.2 and 6.8, than at pH 7.4 and 8.0"
same,cytotoxicity for HT29 cells as a function of pH,HT29 cells [4],significantly higher at pH 6.2 and 6.8 than at pH 7.4 and 8.0
same,solubility in water,Solubility in water,poorly soluble in water
same,share in lactone form at pH 7.4,[5],13%
same,distribution of radioactivity,[6],found exclusively in the gastrointestinal tract
same,share of the biliary content,[7],0.9-3.3%
